Results published in patent US20240341301A1 (The Regents of the University of Michigan, priority 2023, published 2024).

Key:
Irg1 = Irg1 mRNA transcript expression in preserved murine donor hearts; parameters: species or system mouse; settings: 16 hours preservation without reperfusion and during ex vivo perfusion
Experimental: (§1) Male and female WT or Irg1^−/− mice (Jackson laboratories, Bar Harbor, ME) were anesthetized intraperitoneally with 80 mg/kg ketamine and 5 mg/kg xylazine, anticoagulated with heparin (2,000 U/kg iv), and the heart was rapidly exposed through a sternal incision. The aorta was cannulated and retrograde perfused in-situ with HTK solution±HDAC inhibitors. After cannulation, the heart dissected free, the left atrium was opened. For 4-OI (Cayman Chemical, 25374) experiments, donor mice were treated 4-OI (dissolved in 40% β-Cyclodextrin, 50 mg/kg intraperitoneally) or vehicle control (40% β-Cyclodextrin intraperitoneally) 2 hours prior to donor heart procurement. After dissection, the heart was stored at 4° C. with HTK or HTK with VPA for a pre-designated duration. The hearts were then mounted on a Radnoti mouse Langendorff apparatus (ADInstruments inc., Colorado Springs, CO) in constant-pressure mode (˜70 mmHg) with a modified Krebs-Henseleit buffer (KHB; in mM: 118 NaCl, 4.7 KCl, 1.25 CaCl2), 1.66 MgSO4, 24.88 NaHCO3, 1.18 KH2PO4, 5.55 glucose, and 2.0 Na-pyruvate). A balloon was placed in the LV through the left atrium and left ventricular diastolic pressure was set to ˜8 mmHg at initiation. The heart was perfused with modified Krebs-Henseleit buffer for 30 min to stabilize and then hemodynamics measurements were recorded. Myocardial temperature was maintained at 37° C. LabChart software (ADInstruments inc., Colorado Springs, CO) was used to record ventricular function, perfusion pressures, cardiac chamber temperature and myocardial temperature. After perfusing the heart for 60 minutes, the heart was removed from the ex-vivo perfusion apparatus for specimen collection. Tissue was immediately placed in liquid N2 or treated with 4% formalin.

[1] = test system: transplanted murine donor hearts; test: Murine heterotopic syngeneic heart transplantation; format: in vivo, mouse
Experimental: (§2) Cardiac grafts procured from WT C57Bl/6J mice following arrest with cold (4° C.) HTK±VPA were transplanted into the right neck of sex-matched syngeneic C57BL/6J recipient mice following 16 hours of cold (4° C.) preservation in corresponding HTK±VPA solution as previously described (59). A cuff technique was used to connect the recipient right common carotid artery and right external jugular vein to the donor ascending aorta and pulmonary artery, respectively. Following reperfusion in the recipient, successful grafts were expected to resume a regular heartbeat. At 24 hours after reperfusion, the surgical incision was reopened and a small conductance catheter was introduced into the LV to measure contractility and relaxation.
Blood from recipient mice was centrifuged at 3000 g in 4° C. for 10 minutes. Serum was aliquoted and snap-frozen. Serum cTnT, cTnI, TNFα, IL-6, IP10 and MIG concentrations were measured using Sigma-Aldrich MILLIPLEX kits (Cat. No.: MCYTMAG, MCVD2MAG). Pig arterial perfusate was centrifuged at 3000 g in 4° C. for 10 minutes. The abundance of cTnI, IL-1β, IL-6 and TNF-α was detected using Sigma MILLIPLEX kit (Cat. No.: MCVD2MAG, PCYTMAG).

murine hearts = test: Mass spectrometry metabolomics of preserved or transplanted murine hearts; parameters: species or system mouse
Experimental: as §1, §2
Metabolomics measurements were performed by the Michigan Regional Comprehensive Metabolomics Resource Core (Ann Arbor, MI, USA).

[2] = 16 h cold preservation, 24 h reperfusion in recipient
[3] = recipient serum after transplantation
[4] = cold static preservation as well as transplantation
[5] = following murine heart transplantation
[6] = mice hearts during cardiac preservation

CCCC(CCC)C(=O)O [VPA, 2-Propyl-pentanoic acid]
Irg1 transcript expression (Irg1): increased | improvement of in vivo donor heart contractility (max dP/dt) compared to standard HTK solution alone [1, 2]: 265% | improvement of in vivo donor heart relaxation (min dP/dt) compared to standard HTK solution alone [1, 2]: 250% | cell death in transplanted heart tissue ([1]; TUNEL): reduced | serum concentration of IL-6 [1, 3]: reduced | serum concentration of IP-10 [1, 3]: reduced | serum concentration of MIG [1, 3]: reduced | serum concentration of TNFα [1, 3]: reduced | serum troponin I [1, 3]: reduced | serum troponin T [1, 3]: reduced | leukocyte infiltration ([1]; transplanted heart tissue): reduced | itaconate (murine hearts; [4]): increased | succinate (murine hearts; [4]): decreased | fumarate (murine hearts; [5]): increased | glutamate (murine hearts; [5]): decreased | malate (murine hearts; [5]): increased | fumarate concentration in VPA-treated group (murine hearts; [6]): 29.0±7.5 pmol/mg tissue | itaconate concentration in VPA-treated group (murine hearts; [6]): 8.8±0.8 pmol/mg tissue | acetyl-CoA, citrate, α-ketoglutarate, fumarate, or malate abundance (murine hearts; murine hearts during cold preservation): no changes
